Assay results from the supplement of paper PMC10627819.

How the values were obtained:
B. subtilis 168 [1] = assay: fitness (endpoint OD595 vs no drug) (fraction); higher = more growth; settings: main component drawn
Summary of the method: (§1)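 Fitness was defined as the optical density at the transition into stationary phase relative to the robust mean of no-drug control wells. Values were capped at 1. Cultures were started at OD595 0.01 in 384-well plates (30 µl, or 55 µl for S. pneumoniae) in TSB, LB Lennox or CY at 37 °C. OD595 was recorded every 30 min over 14 h, with the first reading subtracted as background.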

S. aureus Newman [2] = assay: as above
Summary of the method: as §1

S. pneumoniae D39V [3] = assay: as above
Summary of the method: as §1

B. subtilis 168 [4] = assay: Bliss interaction score (quartile over a dose matrix) (fitness difference); higher = more antagonism (negative = synergy)
Summary of the method: (§2)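 Growth in each well was taken as OD595 at entry into stationary phase. Dividing by the plate's robust no-drug mean and capping at 1 gave fitness, and single-drug fitness was inferred from the combination data. The Bliss score, observed minus product-expected fitness, is summarised by quartiles over technical, biological and donor/recipient replicates.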

S. aureus DSM 20231 = assay: as above
Summary of the method: as §2

S. aureus Newman [5] = assay: as above
Summary of the method: as §2

S. pneumoniae D39V [6] = assay: as above
Summary of the method: as §2
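Wherever Bliss interaction score (quartile over a dose matrix) is given: first quartile when negative (synergy) and third quartile when positive (antagonism).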

O=C(O[C@@H]1Cc2c(O)cc(O)cc2O[C@@H]1c1cc(O)c(O)c(O)c1)c1cc(O)c(O)c(O)c1 [EGCG] + CC(C1CCC(C(O1)OC2C(CC(C(C2O)OC3C(C(C(CO3)(C)O)NC)O)N)N)N)NC [Gentamicin]
fitness, B. subtilis 168 [1]
Settings	partner 0.0625 µg/mL	partner 0.125 µg/mL	partner 0.25 µg/mL
first compound 6.25 µg/mL	0.944	0.814	–
first compound 25 µg/mL	–	–	0.142

fitness, S. aureus Newman [2], one replicate, main component drawn
Settings	first compound 12.5 µg/mL	first compound 25 µg/mL	first compound 50 µg/mL
partner 0.375 µg/mL	0.802	0.805	0.993
partner 0.75 µg/mL	0.773	0.762	0.62
partner 1.5 µg/mL	0.251	0.0762	0

fitness, main component drawn
Settings	first compound 12.5 µg/mL	first compound 25 µg/mL	first compound 50 µg/mL
S. aureus Newman [2], partner 0.5 µg/mL	0.738	0.69	0.584
S. aureus Newman [2], partner 1 µg/mL	0.795	0.754	0.704
S. aureus Newman [2], partner 2 µg/mL	0.797	0.766	0.709
S. pneumoniae D39V [3], partner 2 µg/mL	0.922	0.947	0.913
S. pneumoniae D39V [3], partner 4 µg/mL	0.947	≥ 1	0.989
S. pneumoniae D39V [3], partner 8 µg/mL	0.936	0.945	0.942

main component drawn
Settings	Bliss interaction score
B. subtilis 168 [4]	0.329
S. aureus DSM 20231	0.0682
S. aureus Newman [5]	-0.123
S. pneumoniae D39V [6]	0.09

O=C(O[C@@H]1Cc2c(O)cc(O)cc2O[C@@H]1c1cc(O)c(O)c(O)c1)c1cc(O)c(O)c(O)c1 [EGCG] + C/C(=C\C(=O)OCCCCCCCCC(=O)O)C[C@@H]1OC[C@H](C[C@@H]2O[C@H]2[C@@H](C)[C@H](C)O)[C@@H](O)[C@H]1O [Pseudomonic acid]
fitness, S. aureus Newman [2], one replicate
Settings	first compound 12.5 µg/mL	first compound 25 µg/mL	first compound 50 µg/mL
partner 0.0313 µg/mL	0.0563	0.0468	0.0316
partner 0.0625 µg/mL	0.0491	0.0391	0.0458
partner 0.125 µg/mL	0.0477	0.0401	0.0275

fitness, S. pneumoniae D39V [3]
Settings	first compound 12.5 µg/mL	first compound 25 µg/mL	first compound 50 µg/mL
partner 0.03 µg/mL	0.879	0.953	0.926
partner 0.06 µg/mL	0.74	0.824	–
partner 0.12 µg/mL	0.494	–	0.545

Settings	Bliss interaction score
B. subtilis 168 [4]	-0.06
S. aureus DSM 20231	-0.014
S. aureus Newman [5]	0.0163
S. pneumoniae D39V [6]	-0.0856
